BindingDB's records for PubMed 35175760 (Shandong University, 2022)

Experiments:
[1] = Inhibition of HIV-1 reverse transcriptase E138K mutant assessed as reduction in luciferase reporter activity by single-round assay
[2] = Inhibition of HIV-1 reverse transcriptase K103N mutant assessed as reduction in luciferase reporter activity by single-round assay
[3] = Inhibition of HIV-1 reverse transcriptase Y181C mutant assessed as reduction in luciferase reporter activity by single-round assay
[4] = Inhibition of HIV-1 reverse transcriptase Y188L mutant assessed as reduction in luciferase reporter activity by single-round assay
[5] = Inhibition of wild type HIV-1 reverse transcriptase assessed as reduction in luciferase reporter activity by single-round assay

Compound	EC50 [1] [nM]	EC50 [2] [nM]	EC50 [3] [nM]	EC50 [4] [nM]	EC50 [5] [nM]
Cc1cc(/C=C/C#N)cc(C)c1Nc1ncc2ncn(-c3ccc(C#N)cc3)c2n1	25	6.5	26	91	4.5
Cc1cc(/C=C/C#N)cc(C)c1-n1cnc2cnc(Nc3ccc(C#N)cc3)nc21	0.7	0.4	1.5	9.6	0.2
Cc1cc(/C=C/C#N)cc(C)c1Nc1ccnc(Nc2ccc(C#N)cc2)n1 [Rilpivirine]					0.4
